The text below walks through data of patent US20250195468A1, “METHODS AND COMPOSITIONS FOR TREATING COLORECTAL CANCER WITH INDOXYL SULFATE” (National Institute of Immunology, priority 2023, published 2025).

SMILES strings stand for the structures. Structures can show the parent of a compound that is named as a salt.

The subject of series [1] is HT-29 cells. The experiment in a line: Cellular imaging (cell morphology). The series is classed as cell-based, human. The settings on record: HT-29, 1.25-10 mM, 24, 48, 72 hours. As for the experimental part:
(§1) To assess the morphological changes of the cells following treatment, HT-29 and HCT-116 cells were cultured in 12-well plates at a concentration of […] cells per well. After 24 hours of seeding, the cells were treated with IS at concentrations of 1.25 mM, 5 mM, and 10 mM. The cells were exposed to IS in triplicate for three different incubation periods: 24 hours, 48 hours, and 72 hours. After the respective incubation periods, the cells were examined using a Nikon microscope equipped with a 20× objective. Images were captured using a digital camera and the NIS-Elements 3.0 software.

The subject of series [2] is HCT-116 cells. Nature of the series: Cellular imaging (cell morphology). The conditions noted are these: HCT-116, 1.25-10 mM, 24, 48, 72 hours. Format: cell-based, human. The method, then:
as §1

Series [3] deals with human adenocarcinoma cells. Nature of the series: Comet assay (DNA damage). The series is classed as cell-based. The settings on record: cell lysate after IS treatment. The method, then:
In the in vitro study, cells were exposed to various doses of indoxyl sulfate ranging from 0.038 mM to 10 mM for three different incubation periods (24 hours, 48 hours, and 72 hours). A decrease in cell proliferation efficiency was observed after 48 hours of treatment, with the most significant effects observed at concentrations of 5 mM and 10 mM of indoxyl sulfate. […] Decrease in cellular ATP content indicates the diminished cellular metabolic activity and may be linked with cell death. Considering these findings. the apoptotic effect of indoxyl sulfate was examined. […] Another study on the osteoblast cell line MC3T3-E1 also confirmed that IS acts as a bone toxin by inducing cell apoptosis and inhibiting differentiation. […] To account for this study. cells were also assessed for oxidative stress in this invention by staining them with […] (DHE) after 48 hours of treatment. […] The potential for IS to cause DNA damage was also investigated.

Series [4] deals with HT-29 cells. The experiment in a line: Apoptosis assay, Annexin V-FITC/PI flow cytometry. The series is classed as cell-based, human. The settings on record: for apoptotic percentage: 48 hours, untreated 3%. The method, then:
(§2) The apoptotic effect of IS was evaluated on HCT-116 and HT-29 cells using the propidium iodide (PI)/Annexin V-fluorescein isothiocyanate (FITC) dual staining kit (ab14085: Abcam, USA). Duplicate wells of cells were cultured at a density of 3×10^5 cells per well in 6-well plates. After 24 hours of seeding, the cells were treated with IS at concentrations of 1.25 mM, 5 mM, and 10 mM. Following a 48-hour treatment period, the cells were harvested using trypsin and washed twice with PBS. After the washing steps, the cells were resuspended in 1 ml of fresh media and counted at each concentration using a hematocytometer. From each concentration, 2×10^5 cells were taken and dissolved in 500 μl of binding buffer, 5 μl of PI, and 5 μl of Annexin V-FITC. The cells were then incubated in the dark at room temperature for 30 minutes. Subsequently, the cells were analyzed for apoptosis using flow cytometry (BD Biosciences, FACS Canto™ Flow Cytometer, Germany) at 488 nm. Untreated cells were used as controls for comparison.
In general terms: Flow cytometry measures light scatter and fluorescence of single cells or particles in a stream.

The test system of series [5] is HCT-116 cells. Nature of the series: Apoptosis assay, Annexin V-FITC/PI flow cytometry. The series is classed as cell-based, human. The settings on record: for apoptotic percentage: 48 hours, untreated 3%. The method, then:
as §2

For series [6], the system named is inflammatory cytokines IL-17A, IL-1β and TNF-α. The experiment in a line: Cytokine study (ELISA of blood samples). The series is classed as in vivo, mice. The settings on record: IP and IR, zero, 1 month, 2 month. As for the experimental part:
Each group consisted of six mice. […] For the cytokine study, blood samples were collected from the mice. The cytokines of interest, IL-1β, TNF-α, and IL-17A, were analyzed in all groups at three different time points: baseline (time point zero), one month, and two months. The analysis was performed using an ELISA kit from R&D Systems. The experimental procedure for cytokine study followed the instructions provided with the kit. In summary, each well of the ELISA plate was coated with a specific monoclonal antibody against the respective cytokines. Then, 50 ul of standard, control, and sample were added to the appropriate wells. The plate was incubated at room temperature (RT) for 2 hours. After incubation, each well was washed four times with 400 ul of buffer to remove any unbound substances. Subsequently, 100 ul of the secondary antibody conjugate was added to each well and incubated at RT for another 2 hours. Following the second incubation, the wells were washed four times, and 100 ul of substrate solution was added. The plate was then incubated for 30 minutes at RT in the dark. After incubation, 100 ul of stop solution was added to each well to halt the enzymatic reaction. The optical density (OD) of the samples was measured at wavelengths of 450 nm and 570 nm within 30 minutes of adding the stop solution. To obtain the final readings, the absorbance at 570 nm was subtracted from the absorbance at 450 nm.
In general terms: ELISA stands for enzyme-linked immunosorbent assay.

Series [7] has as its system HT-29 cells. Nature of the series: Cell viability by MTT assay. The conditions noted are these: for viability at 10000 µM: Homo sapiens, HT-29, 10 mM, untreated = 100%. The series is classed as cell-based, human. As for the experimental part: (§3) Human colon epithelial adenocarcinoma cell lines, HT-29 and HCT-116 (procured from ATCC), are commonly utilized for CRC research. HT-29 cells were cultured in McCoy 5A media (Gibco) supplemented with 10% heat-inactivated FBS (Gibco) and penicillin-streptomycin (Sigma-Aldrich: Merck KGaA, Germany). On the other hand, HCT-116 cells were cultured in Dulbecco's modified Eagle's medium-F12 nutrient mixture (DMEM-F12: Gibco) supplemented with 10% heat-inactivated FBS (Gibco) and penicillin-streptomycin (Sigma-Aldrich: Merck KGaA, Germany). The cells were incubated in a humidified incubator at 37° C. with 5% CO2.
(§4) To evaluate the impact of IS treatment, cell viability was assessed using Thiazolyl Blue Tetrazolium Bromide (MTT) dye. HT-29 and HCT-116 cells were seeded at a density of 3000 cells per well in a 96-well plate. After 24 hours of seeding, the cells were exposed to various concentrations of IS, including 0.018 mM, 0.037 mM, 0.075 mM, 0.15 mM. 0.31 mM, 0.62 mM. 1.25 mM, 2.5 mM, 5 mM, and 10 mM. Triplicate wells were treated with IS for three different incubation periods: 24 hours, 48 hours, and 72 hours. After the respective incubation periods. 20 μl of MTT dye (5 mg/ml) was added to each well and incubated for 3 hours. The yellow MTT dye is converted into purple formazan crystals by the mitochondrial succinate dehydrogenase enzyme, NAD (P) H. Following the incubation, 100 μl of dimethyl sulphoxide (DMSO) was added to dissolve the formazan crystals. Formazan crystal dissolve immediately after adding DMSO, so taken the reading just after adding the DMSO. The intensity of the purple color is directly proportional to cell viability. Absorbance was measured at 570 nm using a Multiskan Sky microplate spectrophotometer (Thermo Scientific). Non-treated cells served as controls and were considered 100% viable.
(In general: Tetrazolium dyes change colour on reduction, which living cells bring about.)

Series [8] has as its system HCT-116 cells. The experiment in a line: Cell viability by MTT assay. The series is classed as cell-based, human. The conditions noted are these: for viability at 10000 µM: Homo sapiens, HCT-116, 10 mM, untreated = 100%. The method, then:
as §3, §4

The mark [9] stands for this setting: 10 mM, 48-hour treatment, stated for cells in general.

For `O=S(=O)(O)Oc1c[nH]c2ccccc12` [IS, Indoxyl Sulfate], the cell morphology result is “rounded morphology, reduced cell numbers, and detachment from the culture substrate” in the series on HT-29 cells [1]; “rounded morphology, reduced cell numbers, and detachment from the culture substrate” in the series on HCT-116 cells [2]. The “DNA damage (comet formation)” value in series [3] is “does not show formation of any comet”. The “increase in cell apoptosis compared to the control” value in the series on HT-29 cells [4] (setting [9]) and in the series with HCT-116 cells [5] (setting [9]) was 10% in each case. Besides, the apoptotic percentage in the series with HT-29 cells [4] (HT-29, 5 mM) came to 8%; with HT-29 cells [4] (HT-29, 10 mM), 12%; with HCT-116 cells [5] (HCT-116, 5 mM), 9%; in the series on HCT-116 cells [5] (HCT-116, 10 mM), 13%. In addition, the “level of IL-1β vs control groups” value in series [6] is given as “no significant differences”. In series [6], the “level of IL-17A vs control groups” value is on record as “no significant differences”. In addition, the “level of TNF-α vs control groups” value in series [6] is reported as “no significant differences”. The “cell viability” value with HT-29 cells [7] (0.62 mM, cell line not given) is on record as “cell viability unexpectedly increased”; in the series with HCT-116 cells [8] (0.62 mM, cell line not given) it was “cell viability unexpectedly increased”. The viability (in general, the share of living cells, or the viability signal relative to a control) at 10000 µM in the series with HT-29 cells [7] (24 hours) stood at 41%; in the series on HT-29 cells [7] (48 hours), 30%; in the series on HT-29 cells [7] (72 hours), 17%; with HCT-116 cells [8] (24 hours), 30%; in the series on HCT-116 cells [8] (48 hours) it was 7%; in the series with HCT-116 cells [8] (72 hours), 4%.
